Test results: patent publication US20250179013A1, “INHIBITORS OF RNA HELICASE DHX9 AND USES THEREOF” (ACCENT THERAPEUTICS, INC., priority 2022, published 2025)
Read-outs that look alike come from different tables or passages of the source.

What was measured:
[1] = tested on: DHX9 (circBRIP1 mRNA in HCT116 cells); experiment: DHX9 circBRIP1 Cellular Target Engagement SYBR Green Assay; format: cell-based; settings: 72 hours
[2] = biological target: T1, Human recombinant DHX9 protein (Homo sapiens, UniProt Q08211); experiment: DHX9 ATPase assay (ADP-Glo biochemical assay); settings: for DHX9 Biochemical Max Inhibition: maximum inhibition in ATPase assay, 10 μM Aurintricarboxylic acid = 100%; for IC50: read-out: DHX9 Biochemical Inflection Point
T1 construct: purchased Viva
T1 sequence (Q08211 whole entry): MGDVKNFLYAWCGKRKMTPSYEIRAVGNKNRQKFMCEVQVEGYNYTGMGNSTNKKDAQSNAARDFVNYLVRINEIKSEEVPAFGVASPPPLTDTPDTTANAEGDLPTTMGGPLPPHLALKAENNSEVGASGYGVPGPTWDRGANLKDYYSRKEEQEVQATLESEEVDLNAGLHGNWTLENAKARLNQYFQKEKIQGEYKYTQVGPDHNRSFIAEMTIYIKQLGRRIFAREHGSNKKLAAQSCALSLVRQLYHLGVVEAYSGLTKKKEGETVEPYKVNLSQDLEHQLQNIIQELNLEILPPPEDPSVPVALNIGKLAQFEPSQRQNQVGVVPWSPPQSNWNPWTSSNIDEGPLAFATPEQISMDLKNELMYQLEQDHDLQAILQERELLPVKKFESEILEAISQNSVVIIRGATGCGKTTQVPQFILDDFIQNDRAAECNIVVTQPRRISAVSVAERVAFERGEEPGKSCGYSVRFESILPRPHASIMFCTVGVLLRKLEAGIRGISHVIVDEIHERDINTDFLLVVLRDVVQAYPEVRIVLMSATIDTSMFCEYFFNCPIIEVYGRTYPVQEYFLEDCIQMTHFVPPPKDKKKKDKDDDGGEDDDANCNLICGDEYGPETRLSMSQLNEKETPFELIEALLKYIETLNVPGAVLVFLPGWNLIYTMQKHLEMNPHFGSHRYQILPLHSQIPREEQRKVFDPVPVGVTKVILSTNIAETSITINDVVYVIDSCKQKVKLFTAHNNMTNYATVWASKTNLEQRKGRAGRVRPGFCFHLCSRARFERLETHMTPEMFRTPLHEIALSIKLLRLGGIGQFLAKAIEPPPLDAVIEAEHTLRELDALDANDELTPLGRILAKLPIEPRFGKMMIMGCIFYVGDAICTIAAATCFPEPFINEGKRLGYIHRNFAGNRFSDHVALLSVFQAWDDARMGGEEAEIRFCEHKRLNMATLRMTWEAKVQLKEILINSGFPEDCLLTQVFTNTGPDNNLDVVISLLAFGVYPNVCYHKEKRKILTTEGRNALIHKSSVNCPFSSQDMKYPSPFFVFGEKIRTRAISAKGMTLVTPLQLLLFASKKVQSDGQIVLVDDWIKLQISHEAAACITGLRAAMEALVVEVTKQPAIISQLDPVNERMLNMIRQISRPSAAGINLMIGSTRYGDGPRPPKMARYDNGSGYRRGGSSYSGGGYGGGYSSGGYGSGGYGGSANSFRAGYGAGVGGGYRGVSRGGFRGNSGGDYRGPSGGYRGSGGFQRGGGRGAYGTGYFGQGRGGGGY

[3] = tested on: DHX9 (circBRIP1 mRNA in HCT116 cells); experiment: DHX9 circBRIP1 Cellular Target Engagement TaqMan Multiplex Assay; format: cell-based; settings: Homo sapiens, HCT-116, TaqMan Multiplex Assay (footnote *), circBRIP1 qPCR, 72 hours
NCI-H747 cells = experiment: DHX9 Cellular Proliferation Assay (CellTiter-Glo), NCI-H747; format: cell-based; settings: Homo sapiens, 120 hours, read-out: H747 (CRC-MSS) Antiproliferative IC50
LS411N cells = experiment: DHX9 Cellular Proliferation Assay (CellTiter-Glo), LS411N; format: cell-based; settings: Homo sapiens, LS-411N, 120 hours, read-out: LS411N (CRC-MSI-H) Antiproliferative IC50
[4] = Homo sapiens, HCT-116, circBRIP1 qPCR

Structure (SMILES)	EC50 [1, 4] [nM]	DHX9 Biochemical Max Inhibition [2] [%]	IC50 [2] [nM]	EC50 [3] [nM]	IC50 (NCI-H747 cells) [nM]	IC50 (LS411N cells) [nM]	EC50 ([1]; circBRIP1 qPCR) [nM]	IC50 ([2]; inflection point (IP) of four-parameter fit, reported instead of IC50, ATPase, dsRNA substrate, 1 h room temperature) [nM]
CS(=O)(=O)Nc1cccc(NC(=O)c2cc(-c3cccc(O)c3)cs2)c1 [Example 73]	6150	63.7	109	–	–	–	–	–
CS(=O)(=O)Nc1cccc(NC(=O)c2cc(-c3cncnc3)cs2)c1 [Example 62]	> 30000	60.8	271	–	–	–	–	–
CS(=O)(=O)Nc1cccc(NC(=O)c2cc(-c3ccccc3O)cs2)c1 [Example 57]	25300	70.7	41.9	–	–	–	–	–
CS(=O)(=O)Nc1cccc(NC(=O)c2cc(-c3ncccc3O)cs2)c1 [Example 69]	4790	75.6	16.3	–	–	–	–	–
CS(=O)(=O)Nc1cccc(NC(=O)c2cc(-c3ccccc3OCc3ccccc3)cs2)c1 [Example 77]	2040	72.3	89.4	–	–	–	–	–
CS(=O)(=O)Nc1cccc(NC(=O)c2cc(-c3cccc(N)n3)cs2)c1 [Example 85]	1390	70.7	19.5	–	–	–	–	–
Cc1ncccc1-c1csc(C(=O)Nc2cccc(NS(C)(=O)=O)c2)c1 [Example 60]	10900	69.2	76.6	–	–	–	–	–
CS(=O)(=O)Nc1cccc(NC(=O)c2cc(-c3ncccc3N)cs2)c1 [Example 89]	1030	76.4	9.7	–	–	–	–	–
Cn1cc(C(=O)Nc2cccc(NS(C)(=O)=O)c2)cc1-c1ccc(N2CC(F)(F)C2)cn1 [Example 160, 5-[5-(3,3-difluoroazetidin-1-yl)pyridin-2-yl]-N-(3-methanesulfonamidophenyl)-1-methylpyrrole-3-carboxamide]	–	89.6	28.4	1410	> 10000	9450	–	–
Cc1cc(C)nc(-n2nc(C(=O)Nc3cccc(NS(C)(=O)=O)c3)cc2C)n1 [Example 15]	> 30000	70.4	579	–	–	–	–	–
CS(=O)(=O)Nc1cccc(NC(=O)c2cc(-c3ccc(N4CCNCC4)cn3)cs2)c1 [Example 91, N-(3-(methylsulfonamido)phenyl)-4-(5-(piperazin-1-yl)pyridin-2-yl)thiophene-2-carboxamide]	7630	74.6	7.2	–	–	–	–	–
CS(=O)(=O)Nc1cccc(NC(=O)c2cc(-c3c(O)cccc3F)cs2)c1 [Example 70]	4370	71.2	32.2	–	–	–	–	–
CS(=N)(=O)Nc1cccc(NC(=O)c2cc(-c3ccccc3)cs2)c1 (centres unmarked) [Example 157, N-(3-(methylsulfonoamidimidamido)phenyl)-4-phenylthiophene-2-carboxamide]	–	68.6	–	–	–	–	> 30000	205
Cc1c(O)cccc1-c1csc(C(=O)Nc2cccc(NS(C)(=O)=O)c2)c1 [Example 74, 4-(3-hydroxy-2-methylphenyl)-N-(3-(methylsulfonamido)phenyl)thiophene-2-carboxamide]	≥ 30000	71.4	80.6	–	–	–	–	–
CCS(=O)(=O)Nc1cccc(NC(=O)c2cc(-c3ccccn3)cs2)c1 [Example 97]	4320	70	24.7	–	–	–	–	–
CS(=O)(=O)Nc1cccc(NC(=O)c2cc(-c3cccc(N)c3)cs2)c1 [Example 58]	3120	69.2	55.8	–	–	–	–	–
CS(=O)(=O)Nc1cccc(NC(=O)c2cc(-c3ccccn3)n[nH]2)c1 [Example 81]	> 30000	68.3	1070	–	–	–	–	–
CS(=O)(=O)Nc1cccc(NC(=O)c2ccc(N3CCCC3)cc2)c1 [Example 31]	> 30000	80.3	864	–	–	–	–	–
CNC(=O)c1sc(C(=O)Nc2cccc(NS(C)(=O)=O)c2)cc1-c1ccccc1 [Example 152]	16600	69.7	123	–	–	–	–	–
Cc1ccc(-c2csc(C(=O)Nc3cccc(NS(C)(=O)=O)c3)c2)cn1 [Example 65]	8560	66.9	41.8	–	–	–	–	–
CS(=O)(=O)Nc1cccc(NC(=O)c2cnn(-c3ccccc3)c2)c1 [Example 1]	> 30000	71.6	339	–	–	–	–	–
CS(=O)(=O)Nc1cccc(NC(=O)c2cc(-c3ncccn3)cs2)c1 [Example 84]	4840	71.4	12.5	–	–	–	–	–
CS(=O)(=O)Nc1cccc(NC(=O)c2cc(-c3cc(C(N)=O)ccn3)cs2)c1 [Example 92]	> 30000	75.5	55.4	–	–	–	–	–
CC(=O)Nc1ccccc1-c1csc(C(=O)Nc2cccc(NS(C)(=O)=O)c2)c1 [Example 93, 4-(2-acetamidophenyl)-N-(3-(methylsulfonamido)phenyl)thiophene-2-carboxamide]	11500	74	39.9	–	–	–	–	–
CS(=O)(=O)Nc1cccc(NC(=O)c2cc(-c3cc(C(=O)O)ccn3)cs2)c1 [Example 87]	≥ 30000	77.2	22.6	–	–	–	–	–
CS(=O)(=O)Nc1cccc(NC(=O)c2cccc(-n3cccn3)c2)c1 [Example 40]	> 30000	72.8	371	–	–	–	–	–
CS(=O)(=O)Nc1cccc(NC(=O)c2cc(-c3cccnn3)cs2)c1 [Example 66]	> 30000	71.3	87.5	–	–	–	–	–
CS(=O)(=O)Nc1cccc(NC(=O)c2cc(-c3ccccc3N)cs2)c1 [Example 88]	10500	68.2	65.4	–	–	–	–	–
